# Laboratory results published in PMC4413211, “Esters of the Marine-Derived Triterpene Sipholenol A Reverse P-GP-Mediated Drug Resistance” (Marine Drugs, 2015).
# pEC50: −log10 of the molar value.
# Key:
# SW620 = experiment: cells; set-up: species or system SW620; SW620/Ad300; MTT cytotoxicity assay, absorbance at 570 nm; settings: Homo sapiens, SW-620, 72 h
# Experimental: (§1) The MTT colorimetric assay was used to detect the sensitivity of cells to anticancer drugs. Cells were harvested with trypsin treatment. After washing with PBS, cells were resuspended in the culture media. Cells with a final concentration of 5 × 10^3 cells/well were seeded evenly into 96-well plates with 160 μL media. For the reversal experiments, SSJ compounds, verapamil, FTC or PAK104P (20 μL/well) was added followed by different concentrations of chemotherapeutic drugs (20 μL/well) into designated wells. After 72 h of incubation, 20 μL of MTT solution (5 mg/mL) was added to each well, and the plate was further incubated for 4 h, allowing viable cells to convert the yellow colored MTT into dark-blue formazan crystals. Subsequently, the medium was discarded, and 100 μL of dimethylsulfoxide (DMSO) was added into each well to dissolve the formazan crystals. The absorbance was determined at 570 nm by an OPSYS Microplate Reader from DYNEX Technologies Inc. (Chantilly, VA, USA) followed previously described protocol. The fold of resistance was calculated by dividing the IC50 (concentrations required to inhibit growth by 50%) of the MDR cells by that of the parental sensitive cells. Sipholane analogs (14 compounds) were first tested for cytotoxicity using MTT assay on colon cancer cells SW620 (drug-sensitive) and SW620/Ad300 (drug-resistant). […] Because these compounds were used at a concentration of 5 μM, which is the non-toxic concentration for all of them, they were considered to have no direct cytotoxic effect on cells. HEK293/pcDNA3.1, HEK/ABCB1, HEK/ABCG2 and HEK/ABCC1 cells were generated by transfecting the HEK293 cells with either empty pcDNA3.1 vector, ABCB1 expression vector, ABCG2 expression vector or ABCC1 expression vector respectively. HEK/ABCC1 was generated in the laboratory of Suresh V. Ambudkar (NCI, NIH, Bethesda, MD, USA). The human colon cancer cell line SW620 and doxorubicin-selected P-gp overexpressing SW620/Ad300 cell line were used for the reversal study. SW620, SW620/Ad300 and HEK/ABCG2 cells were also kindly provided by Susan Bates and Robert Robey (NCI, NIH, Bethesda, MD, USA). All the cell lines were grown as adherent monolayers in flasks with DMEM culture medium (GE Healthcare Life Sciences, Logan, UT, USA) supplemented with 10% bovine serum in a humidified incubator containing of 5% CO2 at 37 °C.
# SW620/Ad300 = test system: T1, SW620/Ad300; experiment: cells; set-up: MTT cytotoxicity assay, absorbance at 570 nm; settings: Homo sapiens, SW620/AD300, 72 h
# T1 construct: doxorubicin-selected, P-gp overexpressing
# Experimental: as §1
# [1] = biological target: T2, P-glycoprotein (P-gp/ABCB1) (Homo sapiens, UniProt P08183); experiment: Vanadate-sensitive ATPase stimulation in recombinant human P-gp membranes; supported by [3H]-paclitaxel accumulation/efflux in cells; type: biochemical; set-up: Recombinant human P-gp membrane
# T2 sequence (P08183 whole entry): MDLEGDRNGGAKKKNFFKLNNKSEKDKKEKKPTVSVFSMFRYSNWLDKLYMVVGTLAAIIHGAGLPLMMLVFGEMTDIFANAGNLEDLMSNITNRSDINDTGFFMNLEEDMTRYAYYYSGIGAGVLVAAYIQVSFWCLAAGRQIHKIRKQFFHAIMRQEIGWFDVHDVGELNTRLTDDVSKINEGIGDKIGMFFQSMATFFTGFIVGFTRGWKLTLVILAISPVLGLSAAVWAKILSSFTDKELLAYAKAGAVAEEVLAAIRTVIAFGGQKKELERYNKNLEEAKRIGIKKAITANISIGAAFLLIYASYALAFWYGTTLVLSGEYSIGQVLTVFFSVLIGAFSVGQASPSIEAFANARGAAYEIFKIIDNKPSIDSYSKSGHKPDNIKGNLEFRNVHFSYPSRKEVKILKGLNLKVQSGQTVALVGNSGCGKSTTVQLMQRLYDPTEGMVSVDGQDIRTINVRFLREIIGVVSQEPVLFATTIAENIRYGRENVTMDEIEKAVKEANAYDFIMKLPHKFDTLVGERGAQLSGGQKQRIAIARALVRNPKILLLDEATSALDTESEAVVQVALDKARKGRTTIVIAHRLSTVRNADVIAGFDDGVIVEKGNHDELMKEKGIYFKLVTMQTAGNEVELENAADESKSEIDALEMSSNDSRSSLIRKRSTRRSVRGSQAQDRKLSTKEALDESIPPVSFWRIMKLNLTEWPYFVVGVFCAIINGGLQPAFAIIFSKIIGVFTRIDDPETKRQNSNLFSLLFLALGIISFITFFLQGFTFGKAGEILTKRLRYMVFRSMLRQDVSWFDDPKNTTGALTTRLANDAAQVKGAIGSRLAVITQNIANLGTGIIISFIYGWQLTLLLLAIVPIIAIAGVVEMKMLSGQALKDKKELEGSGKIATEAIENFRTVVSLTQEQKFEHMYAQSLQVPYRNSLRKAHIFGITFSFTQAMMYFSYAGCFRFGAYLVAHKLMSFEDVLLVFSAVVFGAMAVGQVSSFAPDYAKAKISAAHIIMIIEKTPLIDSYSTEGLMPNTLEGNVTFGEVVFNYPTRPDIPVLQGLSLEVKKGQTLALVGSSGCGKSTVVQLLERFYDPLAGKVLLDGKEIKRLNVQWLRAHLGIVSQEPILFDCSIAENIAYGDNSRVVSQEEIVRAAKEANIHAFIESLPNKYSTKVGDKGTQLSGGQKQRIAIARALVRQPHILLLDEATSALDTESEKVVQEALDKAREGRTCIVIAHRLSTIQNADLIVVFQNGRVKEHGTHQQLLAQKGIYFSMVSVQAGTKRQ
# [2] = biological target: T2, P-glycoprotein (P-gp/ABCB1)
pEC50 [1],SMILES,IC50 (SW620) [µM],IC50 (SW620/Ad300) [µM],"[3H]-paclitaxel accumulation and efflux, resistant versus parental cells [2]"
–,CC1=CCC2C(CCC2(C)O)C(C)(C)C1CCC1C(C)(O)CCC2OC(C)(C)C(OC(=O)CCC(=O)O)CCC21C (stereo not drawn) [SSJ25 (2)],> 30,> 30,–
6.59,"CC(=O)O[C@H]1CC[C@]2(C)[C@H](CC[C@@](C)(O)[C@H]2CC[C@H]2C(C)=CC[C@H]3[C@H](CC[C@]3(C)O)C2(C)C)OC1(C)C [SSJ26, sipholenol A-4-O-acetate]",> 30,> 30,–
–,CC(=O)OC1CCC2(C)C(CCC(C)(O)C2CCC2C(C)=CCC3C(CCC3(C)OC(C)=O)C2(C)C)OC1(C)C (stereo not drawn) [SSJ27 (4)],> 30,> 30,–
–,CC1=CCC2C1CC=C(C)C(CCC1C(C)(O)CCC3OC(C)(C)C(O)CCC31C)C2(C)C (stereo not drawn) [SSJ28 (5)],> 30,> 30,–
–,CC1=CCC2C1CC=C(C)C(CCC1C(C)(O)CCC3OC(C)(C)C(OC(=O)c4ccccc4)CCC31C)C2(C)C (stereo not drawn) [SSJ29 (6)],> 30,> 30,–
–,CC1=CCC2C(CCC2(C)O)C(C)(C)C1CCC1C(C)(O)CCC2OC(C)(C)C(OC(=O)c3ccccc3)CCC21C (stereo not drawn) [SSJ31 (8)],> 30,> 30,–
6.22,"CC1=CC[C@H]2[C@H](CC[C@]2(C)O)C(C)(C)[C@H]1CC[C@H]1[C@]2(C)CC[C@H](OC(=O)c3ccncc3)C(C)(C)O[C@H]2CC[C@@]1(C)O [SSJ32, sipholenol A-4-O-isonicotinate]",> 30,> 30,–
–,CC1=CCC2C1CC=C(C)C(CCC1C(C)(O)CCC3OC(C)(C)C(OC(=O)c4ccncc4)CCC31C)C2(C)C (stereo not drawn) [SSJ33 (10)],> 30,> 30,–
–,CC1=CCC2C1CC=C(C)C(CCC1C(C)(O)CCC3OC(C)(C)C(OC(=O)CCC(=O)O)CCC31C)C2(C)C (stereo not drawn) [SSJ34 (11)],> 30,> 30,–
–,CC(=O)OC1CCC2(C)C(CCC(C)(O)C2CCC2C(C)=CCC3C(C)=CCC3C2(C)C)OC1(C)C (stereo not drawn) [SSJ35 (12)],> 30,> 30,–
–,CC1=CCC2C(CCC2(C)O)C(C)(C)C1CCC1C(C)(O)CCC2OC(C)(C)C(OCc3ccccc3)CCC21C (stereo not drawn) [SSJ36 (13)],> 30,> 30,–
–,CC1=CCC2C1CC=C(C)C(CCC1C(C)(O)CCC3OC(C)(C)C(OCc4ccccc4)CCC31C)C2(C)C (stereo not drawn) [SSJ37 (14)],> 30,> 30,–
–,CC(=O)O[C@H]1C(=O)[C@@]2(C)[C@H]([C@H](OC(=O)c3ccccc3)[C@]3(O)C[C@H](OC(=O)[C@H](O)[C@@H](NC(=O)c4ccccc4)c4ccccc4)C(C)=C1C3(C)C)[C@]1(OC(C)=O)CO[C@@H]1C[C@@H]2O [paclitaxel],–,–,"while the paclitaxel level significantly decreased in SW620/Ad300 drug-resistant cells, the levels of paclitaxel remained stable in parental SW620"
